For this assay, the system named is STING pathway. The experiment in a line: STING reporter assay: luciferase reporter activity in THP1-Dual KO-IFNAR2 cells activated with 2'3'cGAMP. The assay is classed as cell-based. The settings on record: Homo sapiens, 2'3'cGAMP 15 μM, 24 h, read-out: hSTING EC50. In a few lines:
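THP1-Dual KO-IFNAR2 cells were exposed to compounds at 0.0017-100 μM final and stimulated with 2′3′cGAMP (15 μM final) delivered with Lipofectamine 2000. After 24 h at 37 °C, secreted luciferase in the supernatant was read with QUANTI-Luc Plus, and EC50 values were calculated.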
(In general: Reporter assays use an easily measured gene product as a stand-in for the process of interest.)

Broadly, the EC50 is the concentration at which the effect is half-maximal. As for `CCOc1ccc(C(=O)Nc2c[nH]c3cc(F)c(F)cc23)cc1` [Compound 147, N-(5,6-difluoro-1H-indol-3-yl)-4-ethoxybenzamide], the EC50 was 200 to 1000 nM.
The result for `O=C(Nc1c[nH]c2cc(F)c(F)cc12)c1ccnc(NCCCC(F)(F)F)n1` [Compound 164, N-(5,6-difluoro-1H-indol-3-yl)-2-((4,4,4-trifluorobutyl)amino)pyrimidine-4-carboxamide] reads 1000 to 5000 nM.
The result for `O=C(Nc1c[nH]c2cc(F)c(F)cc12)c1ccnc(OC(F)F)c1` [Compound 106, N-(5,6-difluoro-1H-indol-3-yl)-2-(difluoromethoxy)pyridine-4-carboxamide] reads 200 to 1000 nM; that for `O=C(Nc1c[nH]c2cc(F)c(F)cc12)c1ccc(C2(O)CCOCC2)cc1` [Compound 248, N-(5,6-difluoro-1H-indol-3-yl)-4-(4-hydroxytetrahydro-2H-pyran-4-yl)benzamide], 5000 to 100000 nM; that for `O=C(Nc1c[nH]c2cc(F)c(F)cc12)c1ccc(OCCC(F)(F)F)c(F)c1` [Compound 160, N-(5,6-difluoro-1H-indol-3-yl)-3-fluoro-4-(3,3,3-trifluoropropoxy)benzamide], 40 to 200 nM.
With `O=C(Nc1c[nH]c2cc(F)c(F)cc12)c1ccc(OC2CN(CC(F)(F)F)C2)nc1` [Compound 246, N-(5,6-difluoro-1H-indol-3-yl)-6-((1-(2,2,2-trifluoroethyl)azetidin-3-yl)oxy)nicotinamide], the EC50 was 200 to 1000 nM.
As for `O=C(Nc1c[nH]c2cc(F)c(F)cc12)c1ccc(OC2CC(F)(F)C2)c(F)c1` [Compound 149, N-(5,6-difluoro-1H-indol-3-yl)-4-(3,3-difluorocyclobutoxy)-3-fluorobenzamide], the EC50 lay in the range of 200 to 1000 nM.
In the case of `O=C(Nc1c[nH]c2cc(F)c(F)cc12)c1cccc(OC(F)F)c1` [Compound 121, N-(5,6-difluoro-1H-indol-3-yl)-3-(difluoromethoxy)benzamide] it was 1000 to 5000 nM; in that of `O=C(Nc1c[nH]c2cc(F)c(F)cc12)c1ccc(C(O)C2CC(F)(F)C2)cc1` (stereo not drawn) [Compound 233, N-(5,6-difluoro-1H-indol-3-yl)-4-((3,3-difluorocyclobutyl)(hydroxy)methyl)benzamide], 200 to 1000 nM; in that of `O=C(Nc1c[nH]c2cc(F)c(F)cc12)c1cc(F)c(OCC(F)(F)F)c(F)c1` [Compound 115, N-(5,6-difluoro-1H-indol-3-yl)-3,5-difluoro-4-(2,2,2-trifluoroethoxy)benzamide], 200 to 1000 nM.
On to `O=C(Nc1c[nH]c2cc(F)c(F)cc12)c1ccnc(NC2CC(F)(F)C2)c1` [Compound 247, N-(5,6-difluoro-1H-indol-3-yl)-2-((3,3-difluorocyclobutyl)amino)isonicotinamide], for which the EC50 lay within 200 to 1000 nM.
Turning to `Cc1cc(C(=O)Nc2c[nH]c3cc(F)c(F)cc23)cnc1NCCCC(F)(F)F` [Compound 191, N-(5,6-difluoro-1H-indol-3-yl)-5-methyl-6-((4,4,4-trifluorobutyl)amino)nicotinamide], the EC50 was in the range of 200 to 1000 nM.
Consider `COCCCNc1ncc(C(=O)Nc2c[nH]c3cc(F)c(F)cc23)cc1C` [Compound 103, N-(5,6-difluoro-1H-indol-3-yl)-6-((3-methoxypropyl)amino)-5-methylnicotinamide], for which the EC50 was 5000 to 100000 nM.
In the case of `CCC(O)Cc1ccc(C(=O)Nc2c[nH]c3cc(F)c(F)cc23)cn1` (stereo not drawn) [Compound 228, N-(5,6-difluoro-1H-indol-3-yl)-6-(2-hydroxybutyl)nicotinamide] it was 1000 to 5000 nM; in that of `O=C(Nc1c[nH]c2cc(F)c(F)cc12)c1ccc(OCCCC(F)(F)F)nc1` [Compound 138, N-(5,6-difluoro-1H-indol-3-yl)-6-(4,4,4-trifluorobutoxy)nicotinamide], 200 to 1000 nM; in that of `O=C(Nc1c[nH]c2cc(F)c(F)cc12)c1cccc(OCc2ccccc2)c1` [Compound 131, 3-(benzyloxy)-N-(5,6-difluoro-1H-indol-3-yl)benzamide], 1000 to 5000 nM.
Regarding `O=C(Nc1c[nH]c2cc(F)c(F)cc12)c1ccc(OC(F)(F)F)c(Cl)c1` [Compound 114, 3-chloro-N-(5,6-difluoro-1H-indol-3-yl)-4-(trifluoromethoxy)benzamide], the EC50 lay within 200 to 1000 nM.
In the case of `O=C(Nc1c[nH]c2cc(F)c(F)cc12)c1cccc(OC2CCOCC2)n1` [Compound 124, N-(5,6-difluoro-1H-indol-3-yl)-6-(oxan-4-yloxy)pyridine-2-carboxamide] it was 5000 to 100000 nM; in that of `O=C(Nc1c[nH]c2cc(F)c(F)cc12)c1ccc(CN2CC3(C2)CC(F)(F)C3)c(F)c1` [Compound 237, N-(5,6-difluoro-1H-indol-3-yl)-4-((6,6-difluoro-2-azaspiro[3.3]heptan-2-yl)methyl)-3-fluorobenzamide], 200 to 1000 nM.
For `Cc1cc(C(=O)Nc2c[nH]c3cc(F)c(F)cc23)cc(C2CCCCC2)n1` [Compound 186, 2-cyclohexyl-N-(5,6-difluoro-1H-indol-3-yl)-6-methylisonicotinamide], the EC50 lay within 1000 to 5000 nM.
On to `O=C(Nc1c[nH]c2cc(F)c(F)cc12)c1ccc(OC(F)F)cc1` [Compound 116, N-(5,6-difluoro-1H-indol-3-yl)-4-(difluoromethoxy)benzamide], for which the EC50 was in the range of 200 to 1000 nM.
With `CC(C)Oc1ccc(C(=O)Nc2c[nH]c3cc(F)c(F)cc23)cc1C(F)(F)F` [Compound 126, N-(5,6-difluoro-1H-indol-3-yl)-4-(propan-2-yloxy)-3-(trifluoromethyl)benzamide], the EC50 was in the range of 200 to 1000 nM.
Turning to `O=C(Nc1c[nH]c2cc(F)c(F)cc12)c1cnc(N2CCC(C(F)(F)F)C2)c(Cl)c1` (stereo not drawn) [Compound 189, 5-chloro-N-(5,6-difluoro-1H-indol-3-yl)-6-(3-(trifluoromethyl)pyrrolidin-1-yl)nicotinamide], the EC50 lay in the range of 200 to 1000 nM.
In the case of `O=C(Nc1c[nH]c2cc(F)c(F)cc12)c1ccc(OC(F)(F)F)nc1` [Compound 197, N-(5,6-difluoro-1H-indol-3-yl)-6-(trifluoromethoxy)pyridine-3-carboxamide] it was 200 to 1000 nM; in that of `O=C(Nc1c[nH]c2cc(F)c(F)cc12)c1ccc(OCCN2CCCCC2)cc1` [Compound 129, N-(5,6-difluoro-1H-indol-3-yl)-4-[2-(piperidin-1-yl)ethoxy]benzamide], 1000 to 5000 nM.
Consider `O=C(Nc1c[nH]c2cc(F)c(F)cc12)c1ccn(Cc2ccc(C(F)(F)F)cc2)c(=O)n1` [Compound 193, N-(5,6-difluoro-1H-indol-3-yl)-2-oxo-1-[[4-(trifluoromethyl)phenyl]methyl]pyrimidine-4-carboxamide], for which the EC50 fell in the range of 1000 to 5000 nM.
The result for `O=C(Nc1c[nH]c2cc(F)c(F)cc12)c1ccc(OCC2CC2)cc1` [Compound 130, 4-(cyclopropylmethoxy)-N-(5,6-difluoro-1H-indol-3-yl)benzamide] reads 200 to 1000 nM; that for `O=C(Nc1c[nH]c2cc(F)ccc12)c1ccc(OCCCC(F)(F)F)c(F)c1` [Compound 192, 3-fluoro-N-(6-fluoro-1H-indol-3-yl)-4-(4,4,4-trifluorobutoxy)benzamide], 200 to 1000 nM.
Consider `O=C(Nc1c[nH]c2cc(F)c(F)cc12)c1cccc(-c2noc(C3CC3)n2)c1` [Compound 234, 3-(5-cyclopropyl-1,2,4-oxadiazol-3-yl)-N-(5,6-difluoro-1H-indol-3-yl)benzamide], for which the concentration for a half-maximal effect (EC50) lay within 200 to 1000 nM.
The result for `O=C(Nc1c[nH]c2cc(F)c(F)cc12)c1ccc(C2CC(F)(F)C2)cc1` [Compound 108, N-(5,6-difluoro-1H-indol-3-yl)-4-(3,3-difluorocyclobutyl)benzamide] reads 200 to 1000 nM; that for `O=C(Nc1c[nH]c2cc(F)c(F)cc12)c1ccc(N2C[C@@H]3[C@@H](COCC(F)(F)F)[C@@H]3C2)c(F)c1` [Compound 227, N-(5,6-difluoro-1H-indol-3-yl)-3-fluoro-4-((1R,5S,6r)-6-((2,2,2-tifluoroethoxy)methyl)-3-azabicyclo[3.1.0]hexan-3-yl)benzamide], 40 to 200 nM; that for `COCCO[C@@H]1CCN(c2ncc(C(=O)Nc3c[nH]c4cc(F)c(F)cc34)cc2C)C1` [Compound 184, (R)-N-(5,6-difluoro-1H-indol-3-yl)-6-(3-(2-methoxyethoxy)pyrrolidin-1-yl)-5-methylnicotinamide], 1000 to 5000 nM.
On to `COCc1ccc(-n2cc(-c3ccc4[nH]cc(NC(=O)c5ccc(OCCCC(F)(F)F)cc5)c4c3)cn2)cc1` [Compound 162, N-(5-(1-(4-(methoxymethyl)phenyl)-1H-pyrazol-4-yl)-1H-indol-3-yl)-4-(4,4,4-trifluorobutoxy)benzamide], for which the EC50 was in the range of 40 to 200 nM.
The result for `O=C(Nc1c[nH]c2cc(F)c(F)cc12)c1ccc(C2CCC(F)(F)CC2)c(Cl)c1` [Compound 166, 3-chloro-N-(5,6-difluoro-1H-indol-3-yl)-4-(4,4-difluorocyclohexyl)benzamide] reads 200 to 1000 nM; that for `O=C(Nc1c[nH]c2cc(F)c(F)cc12)c1ccc(C2CCC(F)(F)CC2)cc1` [Compound 158, N-(5,6-difluoro-1H-indol-3-yl)-4-(4,4-difluorocyclohexyl)benzamide], 40 to 200 nM.
With `O=C(Nc1c[nH]c2cc(F)c(F)cc12)c1ccc(CCC(F)(F)F)c(F)c1` [Compound 176, N-(5,6-difluoro-1H-indol-3-yl)-3-fluoro-4-(3,3,3-trifluoropropyl)benzamide], the EC50 fell in the range of 200 to 1000 nM.
As to `O=C(Nc1c[nH]c2cc(F)c(F)cc12)c1ccc(OC2CC(F)(F)C2)cc1` [Compound 109, N-(5,6-difluoro-1H-indol-3-yl)-4-(3,3-difluorocyclobutoxy)benzamide], the EC50 is 200 to 1000 nM.
In the case of `O=C(Nc1c[nH]c2cc(F)c(F)cc12)c1cnc(C2CC(F)(F)C2)c(Cl)c1` [Compound 240, 5-chloro-N-(5,6-difluoro-1H-indol-3-yl)-6-(3,3-difluorocyclobutyl)nicotinamide] it was 200 to 1000 nM.
Regarding `O=C(Nc1c[nH]c2cc(F)c(F)cc12)c1ccc(OC(F)F)cn1` [Compound 270, N-(5,6-difluoro-1H-indol-3-yl)-5-(difluoromethoxy)pyridine-2-carboxamide], the concentration giving a half-maximal response (EC50) is 5000 to 100000 nM.

These data come from patent US20230250106A1, “COMPOUNDS AND COMPOSITIONS FOR TREATING CONDITIONS ASSOCIATED WITH STING ACTIVITY” (IFM Due, Inc., priority 2020, published 2023).
